US20110237605A1, “Molecular Crystal of (4-(1,8-Naphthyridin-2-YL)Piperidin-1-YL)Pyrimidine Derivative” (priority 2010, published 2011)

Test: Physical (polymorph) stability of suspension to bead milling and autoclaving, followed by XRPD
Format: physicochemical
Protocol: The following experiment evidences such stability of the claimed molecular crystal.
A 30 mg/ml suspension of the compound having Formula I (referred to as “BOL-303050”) was made in PBS-0.15% Polysorbate 80 and put in a vial. The contents of the vial were milled by 1 mm zirconia milling beads for 5 times, 2 minutes each at 2400 rpm in a DAC 150 FV Speedmixer and shaken to suspend the drug. An aliquot was withdrawn for XRPD (see FIG. 4, suspension milled). The withdrawn aliquot was centrifuged and dried before XRPD scan.
The remainder of the vial contents was autoclaved at 121° c. for 30 minutes. After autoclaving another sample was removed for XRPD (see FIG. 4, suspension milled and autoclaved). Sample was centrifuged and dried before XRPD scan.
To the remaining sample, 1 mm zirconia milling beads were added and the sample was milled 5 times, for 2 minutes each at 2400 rpm in a DAC 150 FV Speedmixer. After bead milling, a sample was removed for XRPD (see FIG. 4, suspension milled, autoclaved then milled again). Sample was centrifuged and dried before XRPD scan.
The remainder was autoclaved at 121° C. for 30 minutes (see FIG. 4, suspension milled, autoclaved, milled again, then autoclaved). Sample was centrifuged and dried before XRPD scan.
Samples were compared to the XRPD spectrum of the original API sample.

effect of milling on drug polymorph by XRPD (1 mm zirconia milling beads, 5 times, 2 minutes each at 2400 rpm)	stability of crystal form, comparison of XRPD spectra (FIG. 4) (further milling and/or autoclaving)	SMILES	polymorphic change by XRPD on autoclaving (30 mg/ml suspension in PBS-0.15% Polysorbate 80, milled, autoclaved at 121° C. for 30 minutes (initial cycle))	effect of subsequent autoclaving on polymorph by XRPD (milled, autoclaved, milled again, then autoclaved at 121° C. for 30 minutes)
did not affect the drug polymorph	–	COc1ccc(S(=O)(=O)N[C@@H](CNc2nc(C)nc(N3CCC(c4ccc5c(n4)NCCC5)CC3)c2C)C(=O)O)cc1 [BOL-303050, (S)-3-(2,5-dimethyl-6-(4-(5,6,7,8-tetrahydro-1,8-naphthyridin-2-yl)piperidin-1-yl)pyrimidin-4-ylamino)-2-(4-methoxyphenylsulfonamido)propanoic acid]	polymorphic changes occurred only during the initial autoclave cycle	–
–	stable	COc1ccc(S(=O)(=O)N[C@@H](CNc2nc(C)nc(N3CCC(c4ccc5c(n4)NCCC5)CC3)c2C)C(=O)O)cc1 [claimed novel drug polymorph, (S)-3-(2,5-dimethyl-6-(4-(5,6,7,8-tetrahydro-1,8-naphthyridin-2-yl)piperidin-1-yl)pyrimidin-4-ylamino)-2-(4-methoxyphenylsulfonamido)propanoic acid]	–	did not affect the claimed novel drug polymorph
